In DBAASP one finds MIC data, which are given here for four compounds.

As usually defined, the MIC is the lowest concentration found to suppress growth. Low values mean inhibition by little substance, high ones a need for much substance.

≈ marks a conversion by molar mass, not a printed value. Where only a bound is given, the exact number is not on record here.

What all share (test): ≥ marks a high value that may be exact or a test limit, other limits are often not marked, values filed in µg/mL are converted to µM
Assay [1] relates to Staphylococcus aureus.
Assay [2] relates to Micrococcus luteus.
In assay [3] the test system is Salmonella typhimurium.
Assay [4] deals with Escherichia coli.
The test system of assay [5] is Pseudomonas aeruginosa.
Assay [6] has as its system Shigella dysenteriae.
In assay [7] the test system is Staphylococcus epidermidis.
The test system of assay [8] is Proteus mirabilis.
Assay [9] deals with Bacillus subtilis.
The subject of assay [10] is Klebsiella pneumoniae.
Assay [11] concerns Enterococcus faecalis.
For assay [12], the system named is Acinetobacter baumannii.

Regarding `CC(C)C[C@H](NC(=O)[C@H](C)NC(=O)CNC(=O)[C@H](CC(C)C)NC(=O)[C@@H](N)Cc1ccccc1)C(=O)N[C@@H](Cc1ccccc1)C(=O)N[C@@H](CCCCN)C(=O)N[C@H](C(=O)N[C@@H](C)C(=O)N[C@@H](Cc1c[nH]c2ccccc12)C(=O)N[C@@H](CCCCN)C(=O)O)C(C)C` [FLGALFKVAWK], the MIC is 9.77 µM (≈ 12.5 µg/mL) in assay [1]; 19.5 µM (≈ 25 µg/mL) in [2]; at least 156 µM in assay [3]; 78.2 µM (≈ 100 µg/mL) in assay [4]; over 156 µM in assay [5]; at least 78.2 µM in [6]. Moreover, the MIC is at least 39.1 µM in assay [7], at least 156 µM in assay [8], 19.5 µM (≈ 25 µg/mL) in [9] and 39.1 µM (≈ 50 µg/mL) in [10].

Consider `CC(C)C[C@H](NC(=O)[C@H](C)NC(=O)CNC(=O)[C@H](CC(C)C)NC(=O)[C@@H](N)Cc1ccccc1)C(=O)N[C@@H](Cc1ccccc1)C(=O)N[C@@H](CCCCN)C(=O)N[C@H](C(=O)N[C@@H](Cc1c[nH]c2ccccc12)C(=O)N[C@@H](CO)C(=O)N[C@@H](CCCCN)C(=O)O)C(C)C` [FLGALFKVWSK], for which the MIC in [1] was over 154 µM; in assay [2], at least 154 µM; in assay [3], at least 154 µM; in assay [4], over 154 µM; in [5], over 154 µM; in assay [6], at least 154 µM. Moreover, the minimal inhibitory concentration (MIC) in assay [7] is at least 154 µM; in assay [8], at least 154 µM; in [9], at least 154 µM; in assay [10], over 154 µM.

Take `CC(C)C[C@H](NC(=O)[C@H](C)NC(=O)CN)C(=O)N[C@@H](Cc1ccccc1)C(=O)N[C@@H](CCCCN)C(=O)N[C@H](C(=O)N[C@@H](C)C(=O)N[C@@H](CO)C(=O)N[C@@H](CCCCN)C(=O)N[C@H](C(=O)N[C@@H](CC(C)C)C(=O)N1CCC[C@H]1C(=O)N[C@@H](CO)C(=O)O)C(C)C)C(C)C` [GALFKVASKVLPS]: the MIC in assay [1] was over 152 µM; in assay [2], at least 152 µM; in assay [3] it was at least 152 µM; in assay [4], over 152 µM; in [5], over 152 µM; in assay [6], at least 152 µM. Moreover, the MIC in [7] was at least 152 µM; in assay [8], at least 152 µM; in assay [9], at least 152 µM; in assay [10] it was over 152 µM.

Consider `CC(C)C[C@H](NC(=O)[C@H](Cc1c[nH]c2ccccc12)NC(=O)[C@H](CCCCN)NC(=O)[C@H](CC(C)C)NC(=O)[C@H](CC(C)C)NC(=O)[C@H](CCCCN)NC(=O)[C@H](CCCN=C(N)N)NC(=O)[C@H](Cc1c[nH]c2ccccc12)NC(=O)[C@H](CCCCN)NC(=O)[C@@H](N)CCCCN)C(=O)N[C@@H](C)C(=O)N[C@@H](CCCCN)C(=O)N[C@@H](CCCCN)C(N)=O` [KKWRKLLKWLAKK], for which the MIC in assay [1] was 2.49 µM (≈ 4.3 µg/mL); in assay [11], 1.56 µM (≈ 2.7 µg/mL); in [12], 1.33 µM (≈ 2.3 µg/mL); in assay [5], 0.753 µM (≈ 1.3 µg/mL).
